pIC50: −log10 of the molar value.

The assay concerns the target T1, Full-length USP19 (Homo sapiens, UniProt O94966).
T1 construct: Full-length USP19 was purchased from Boston Biochem (E-576); purchased Boston Biochem E-576
T1 sequence (O94966 1-1318): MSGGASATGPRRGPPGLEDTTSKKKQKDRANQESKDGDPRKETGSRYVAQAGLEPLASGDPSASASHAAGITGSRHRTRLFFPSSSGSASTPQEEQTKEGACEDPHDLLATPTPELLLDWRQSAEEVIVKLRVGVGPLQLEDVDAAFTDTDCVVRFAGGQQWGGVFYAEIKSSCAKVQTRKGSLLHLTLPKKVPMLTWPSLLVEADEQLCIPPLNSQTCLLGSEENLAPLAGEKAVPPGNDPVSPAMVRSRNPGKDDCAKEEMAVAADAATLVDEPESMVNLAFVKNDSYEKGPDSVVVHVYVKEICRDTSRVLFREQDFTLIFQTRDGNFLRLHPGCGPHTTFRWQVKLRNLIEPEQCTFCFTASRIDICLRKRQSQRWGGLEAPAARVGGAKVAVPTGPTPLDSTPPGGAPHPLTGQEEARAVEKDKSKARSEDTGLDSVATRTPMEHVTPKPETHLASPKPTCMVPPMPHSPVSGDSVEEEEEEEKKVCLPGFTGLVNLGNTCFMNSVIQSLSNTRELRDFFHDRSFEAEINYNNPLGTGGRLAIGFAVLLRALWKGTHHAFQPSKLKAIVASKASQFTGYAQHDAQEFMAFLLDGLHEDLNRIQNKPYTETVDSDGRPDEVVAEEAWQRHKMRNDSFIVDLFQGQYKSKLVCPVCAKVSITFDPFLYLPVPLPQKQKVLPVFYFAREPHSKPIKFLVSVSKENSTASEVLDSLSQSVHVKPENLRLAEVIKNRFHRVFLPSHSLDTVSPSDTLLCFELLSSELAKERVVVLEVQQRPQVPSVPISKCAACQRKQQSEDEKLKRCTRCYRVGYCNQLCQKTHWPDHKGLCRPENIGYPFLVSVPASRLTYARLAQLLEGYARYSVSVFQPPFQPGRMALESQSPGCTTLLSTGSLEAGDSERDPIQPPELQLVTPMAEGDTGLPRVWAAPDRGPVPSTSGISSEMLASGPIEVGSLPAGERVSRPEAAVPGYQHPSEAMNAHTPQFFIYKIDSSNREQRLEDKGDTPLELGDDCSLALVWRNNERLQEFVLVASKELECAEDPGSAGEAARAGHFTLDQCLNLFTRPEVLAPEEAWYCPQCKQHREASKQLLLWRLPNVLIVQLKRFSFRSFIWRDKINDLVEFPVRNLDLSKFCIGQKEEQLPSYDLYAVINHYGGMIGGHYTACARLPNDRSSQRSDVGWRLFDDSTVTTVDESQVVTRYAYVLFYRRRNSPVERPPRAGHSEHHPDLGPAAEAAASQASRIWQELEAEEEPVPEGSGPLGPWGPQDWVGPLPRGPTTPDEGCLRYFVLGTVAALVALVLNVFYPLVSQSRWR
The assay is described as follows: USP19 fluorescence polarisation (FP) homogeneous assay with Ubiquitin-Lys-TAMRA substrate. In kind it is biochemical. As to conditions: 2.5 nM USP19, 30 min pre-incubation, average of at least two duplicate experiments. A digest of the protocol:
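Full-length USP19 preincubated 30 min at RT with inhibitor (200 μM to 2 μM series, 8–18 points) before adding 500 nM Ubiquitin-Lys-TAMRA substrate.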
A general note: In fluorescence polarisation assays a small probe gives low polarisation when free and higher when bound to something large.
On to `O=C(N1CCC(O)(Cn2cnc3cc(F)c(F)cc3c2=O)C2(CCCC2)C1)N1CCNC[C@H]1c1ccccc1` (stereo partly drawn) [Example 170, 6,7-Difluoro-3-((10-hydroxy-7-((R)-2-phenylpiperazine-1-carbonyl)-7-azaspiro[4.5]decan-10-yl)methyl)quinazolin-4(3H)-one], for which the pIC50 was over 6.30.
In the case of `CSc1ncc2c(=O)n(C[C@]3(O)CCN(C(=O)N4CCNC[C@H]4c4ccccc4)CC34CCCC4)ccc2n1` [Example 184, 6-(((S)-10-Hydroxy-7-((R)-2-phenylpiperazine-1-carbonyl)-7-azaspiro[4.5]decan-10-yl)methyl)-2-(methylthio)pyrido[4,3-d]pyrimidin-5(6H)-one], the pIC50 is over 6.30.
The figure for `O=C(N1CC(C2CC2)C1)N1CCC(O)(Cn2cnc(-c3ccccc3)cc2=O)C2(CCCC2)C1` (stereo not shown) [Example 252, 3-((7-(3-Cyclopropylazetidine-1-carbonyl)-10-hydroxy-7-azaspiro[4.5]decan-10-yl)methyl)-6-phenylpyrimidin-4(3H)-one] is 4.30 to 5.30; for `C[C@H](CC(F)(F)F)C(=O)N1CCC(O)(Cn2ccc3nc(N4CCNCC4)ncc3c2=O)C2(CCCC2)C1` (stereo partly drawn) [Example 63, 6-((10-Hydroxy-7-((R)-4,4,4-trifluoro-2-methylbutanoyl)-7-azaspiro[4.5]decan-10-yl)methyl)-2-(piperazin-1-yl)pyrido[4,3-d]pyrimidin-5(6H)-one] it is 5.30 to 6.30.
Under `C[C@H](CC(F)(F)F)C(=O)N1CCC(O)(Cn2cc(N=S(C)(C)=O)c(-c3ccccc3)cc2=O)C2(CCCC2)C1` (stereo partly drawn) [Example 75, 5-((Dimethyl(oxo)-λ^6-sulfaneylidene)amino)-1-((10-hydroxy-7-((R)-4,4,4-trifluoro-2-methylbutanoyl)-7-azaspiro[4.5]decan-10-yl)methyl)-4-phenylpyridin-2(1H)-one] stands over 6.30; under `C[C@H](CC1CCCCC1)C(=O)N1CCC(O)(CN2CCN(C(=O)OCc3ccccc3)CC2=O)C2(CCCC2)C1` (stereo partly drawn) [Example 47, Benzyl 4-((7-((R)-3-cyclohexyl-2-methylpropanoyl)-10-hydroxy-7-azaspiro[4.5]decan-10-yl)methyl)-3-oxopiperazine-1-carboxylate], 5.30 to 6.30; under `O=C(N1CC[C@@](O)(Cn2cnc(-c3ccccc3)cc2=O)C2(CCCC2)C1)N1CCNCC1c1cc(F)cc(F)c1` (mixture of isomers) [Example 380, 3-(((10S)-7-(2-(3,5-difluorophenyl)piper-azine-1-carbonyl)-10-hydroxy-7-azaspiro[4.5]decan-10-yl)methyl)-6-phenylpyrimidin-4(3H)-one], over 6.30.
Under `O=C(NCc1cccc(F)c1)N1CC[C@@](O)(Cn2cnc(-c3ccccc3)cc2=O)C2(CCCC2)C1` [Example 216, (S)—N-(3-Fluorobenzyl)-10-hydroxy-10-((6-oxo-4-phenylpyrimidin-1(6H)-yl)methyl)-7-azaspiro[4.5]decane-7-carboxamide] stands over 6.30.
For the molecule `CSc1ncc2c(=O)n(CC3(O)CCN(C(=O)[C@H](C)CC4CCCCC4)CC34CCCC4)ccc2n1` (stereo partly drawn) [Example 55, 6-((7-((R)-3-Cyclohexyl-2-methylpropanoyl)-10-hydroxy-7-azaspiro[4.5]decan-10-yl)methyl)-2-(methylthio)pyrido[4,3-d]pyrimidin-5(6H)-one], the pIC50 was over 6.30.
Under `C[C@H](CC1CCCCC1)C(=O)N1CCC(O)(Cn2cc(S(C)(=O)=O)c(Cl)cc2=O)C2(CCCC2)C1` (stereo partly drawn) [Example 77, 4-Chloro-1-((7-((R)-3-cyclohexyl-2-methylpropanoyl)-10-hydroxy-7-azaspiro[4.5]decan-10-yl)methyl)-5-(methylsulfonyl)pyridin-2(1H)-one] stands over 6.30; under `O=C(N1CC[C@@](O)(Cn2cnc(-c3ccc4c(c3)COC4)cc2=O)C2(CCCC2)C1)N1CCNC[C@H]1c1ccccc1` [Example 347, 6-(1,3-Dihydro-isobenzofuran-5-yl)-3-(((S)-10-hydroxy-7-((R)-2-phenylpiperazine-1-carbonyl)-7-aza-spiro[4.5]decan-10-yl)methyl)pyrimidin-4(3H)-one], over 6.30.
Under `C[C@H](CC1CCCCC1)C(=O)N1CCC(O)(Cn2cc(-c3ccncc3)ncc2=O)C2(CCCC2)C1` (stereo partly drawn) [Example 20, 1-((7-((R)-3-Cyclohexyl-2-methylpropanoyl)-10-hydroxy-7-azaspiro[4.5]decan-10-yl)methyl)-5-(pyridin-4-yl)pyrazin-2(1H)-one] stands 5.30 to 6.30; under `C[C@H](CC1CCC1)C(=O)N1CCC(O)(Cn2ccncc2=O)C2(CCCC2)C1` (stereo partly drawn) [Example 4, 1-((7-((R)-3-Cyclobutyl-2-methylpropanoyl)-10-hydroxy-7-azaspiro[4.5]decan-10-yl)methyl) pyrazin-2(1H)-one], 5.30 to 6.30.
The figure for `CN(C)C(=O)c1cn(CC2(O)CCN(C(=O)NCc3ccccc3)CC23CCCC3)c(=O)cc1-c1ccccc1` (stereo not shown) [Example 85, N-Benzyl-10-((5-(dimethylcarbamoyl)-2-oxo-4-phenylpyridin-1(2H)-yl)methyl)-10-hydroxy-7-azaspiro[4.5]decane-7-carboxamide] is over 6.30; for `C[C@H](CC(F)(F)F)C(=O)N1CCC(O)(Cn2cnc3c(cnn3C)c2=O)C2(CCCC2)C1` (stereo partly drawn) [Example 180, 5-((10-Hydroxy-7-((R)-4,4,4-trifluoro-2-methylbutanoyl)-7-azaspiro[4.5]decan-10-yl)methyl)-1-methyl-1,5-dihydro-4H-pyrazolo[3,4-d]pyrimidin-4-one] it is 4.30 to 5.30.
Consider `C[C@H](CC(F)(F)F)C(=O)N1CCC(O)(Cn2cc(C(=O)N(C)C)c3ccccc3c2=O)C2(CCCC2)C1` (stereo partly drawn) [Example 130, 2-((10-Hydroxy-7-((R)-4,4,4-trifluoro-2-methylbutanoyl)-7-azaspiro[4.5]decan-10-yl)methyl)-N,N-dimethyl-1-oxo-1,2-dihydroisoquinoline-4-carboxamide], for which the negative logarithm of the IC50 (pIC50) is 3.60 to 4.30.
The figure for `Cc1nc([C@@H]2CCCN2C(=O)N2CCC(O)(Cn3cnc(-c4ccccc4)cc3=O)C3(CCCC3)C2)n[nH]1` (stereo partly drawn) [Example 269, 3-((10-Hydroxy-7-((S)-2-(5-methyl-1H-1,2,4-triazol-3-yl)pyrrolidine-1-carbonyl)-7-azaspiro[4.5]decan-10-yl)methyl)-6-phenylpyrimidin-4(3H)-one] is 3.60 to 4.30; for `C[C@H](CC1CCCCC1)C(=O)N1CCC(O)(Cn2ccncc2=O)C(C)(C)C1` (stereo partly drawn) [Example 1, 1-((1-((R)-3-Cyclohexyl-2-methylpropanoyl)-4-hydroxy-3,3-dimethylpiperidin-4-yl)methyl)pyrazin-2(1H)-one] it is 5.30 to 6.30; for `C[C@H](CC1CCCCC1)C(=O)N1CCC(O)(Cn2cc([S+](C)[O-])c(-c3ccccc3)cc2=O)C2(CCCC2)C1` (stereo partly drawn) [Example 79, 1-((7-((R)-3-Cyclohexyl-2-methylpropanoyl)-10-hydroxy-7-azaspiro[4.5]decan-10-yl)methyl)-5-(methylsulfinyl)-4-phenylpyridin-2(1H)-one] it is over 6.30.
Under `O=C(N1CCC(O)(Cn2cnc3c(cnn3Cc3ccccc3)c2=O)C2(CCCC2)C1)N1CCOC[C@H]1c1ccccc1` (stereo partly drawn) [Example 167, 1-Benzyl-5-((10-hydroxy-7-((R)-3-phenylmorpholine-4-carbonyl)-7-azaspiro[4.5]decan-10-yl)methyl)-1,5-dihydro-4H-pyrazolo[3,4-d]pyrimidin-4-one] stands 5.30 to 6.30; under `O=C(N1CC[C@@](O)(Cn2cnc(N3CCCC(F)(F)C3)cc2=O)C2(CCCC2)C1)N1CCNC[C@H]1c1ccccc1` [Example 363, 6-(3,3-Difluoro-piperidin-1-yl)-3-(((S)-10-hydroxy-7-((R)-2-phenylpiperazine-1-carbonyl)-7-azaspiro[4.5]decan-10-yl)methyl)pyrimi-din-4(3H)-one], over 6.30.
Under `O=C(N1CC[C@@](O)(Cn2cnc(-c3ccccc3)cc2=O)C2(CCCC2)C1)N1CCNC[C@H]1c1ccccc1` [Example 278, 3-(((S)-10-Hydroxy-7-((R)-2-phenylpiperazine-1-carbonyl)-7-azaspiro[4.5]decan-10-yl)methyl)-6-phenylpyrimidin-4(3H)-one] stands over 6.30.

What is called pIC50 is the negative decadic logarithm of the IC50, by convention in mol/L.

The values above are taken from US20220033397A1, “PHARMACEUTICAL COMPOUNDS AND THEIR USE AS INHIBITORS OF UBIQUITIN SPECIFIC PROTEASE 19 (USP19)” (ALMAC DISCOVERY LIMITED, priority 2018, published 2022).
